According to US20060107336A1, “Nonbacterial prostatitis model animal” (priority 2002, published 2006):
Where two headings read alike, the source gives them in different places.

Columns and labels:
[1] = system: bladder function of male Wistar rats; conditions: 8th day of rearing
[2] = system: prostate tissue of male Wistar rats
Procedure: 18 male Wistar rats at the age of 12-weeks-old were divided into 3 groups (test group, comparative group, and negative control group; 6 rats per group). The right inguinal region of each test group rat was incised under ether anesthesia to expose the prostate. Beneath the prostatic capsule of the right lateral lobe was injected 100 μl of sterilized 0.4 N hydrochloric acid physiological saline (a solution prepared by diluting hydrochloric acid with physiological saline to a concentration of 0.4 N, the same applies hereinbelow). The right inguinal region of each comparative group rat was incised in the same manner under ether anesthesia, and 100 μl of 0.4 N hydrochloric acid physiological saline was injected into the right vas deferens thus exposed. The peritoneum and the skin of the rats were sutured with a suture thread. To prevent operational infection, a kanamycin-containing aqueous solution was sprayed onto the site of the incision, and a physiological saline solution containing cefazolin sodium was injected into the femoral muscle in an amount of 7 mg/kg body weight. The control group refers to untreated rats (normal rats) subjected to neither an incisional operation nor hydrochloric acid injection.
The prostate, bladder and urethra were sampled from the rats of respective groups prepared in 1-1) above (test group, comparative group, and control group) to prepare tissue specimens thereof for the evaluation of change in tissue.
Specifically, the rats of the test group and the comparative group were euthanized by exsanguination under ether anesthesia 6 hours (2 rats per group), 4 days (2 rats per group), or 8 days (2 rats per group) after hydrochloric acid injection. The prostate, bladder and urethral tissues were taken out as a lump, and the tissues were fixed with 4% paraformaldehyde. The rats of the control group were subjected to the same treatment.
The frozen blocks were sliced in a cryostat to a thickness of 5 to 6 μm to prepare slide preparations of the tissue sections. The slide preparations were stained with hematoxylin-eosin (H.E), and the appearance of the tissues was observed under a microscope.
In the figures, sample code N refers to the tissue samples obtained from the control group (nonhydrochloric acid-injected rats), and sample code P refers to the tissue samples obtained from the test group (rats injected with hydrochloric acid beneath the prostatic capsules).
In the figures, sample code Y refers to tissue samples obtained from the comparative group (rats injected with hydrochloric acid into the vas deferens).

[3] = 0.1, 0.2 and 0.4 N beneath prostatic capsule
[4] = 100 μl 0.2 N beneath prostatic capsule
[5] = 100 μl 0.4 N beneath prostatic capsule
[6] = 100 μl 0.4 N into the vas deferens, 6 hours after injection

Cl [hydrochloric acid]
correlation between concentration and change in the weight of the prostate [1, 3]: no evidence of correlation | ratio of bladder weight to body weight compared with the control group [1, 3]: comparable or significantly higher | ratio of prostate ventral lobe weight to body weight compared with the control group [1, 3]: comparable or significantly higher | weight of the bladder in relation to concentration injected [1, 3]: increased in accordance with the concentration | volume of residual urine compared with the control group ([1]; 100 μl 0.1 N beneath prostatic capsule): no residual urine | urination interval compared with the control group [1, 4]: significantly shorter | volume of residual urine compared with the control group [1, 4]: significantly higher | volume of urine per urination compared with the control group [1, 4]: smaller | urination interval compared with the control group [1, 5]: significantly shorter | volume of urine per urination compared with the control group [1, 5]: smaller | urethral and bladder tissue damage extending from the prostate [2, 5]: no evidence of tissue damage | localized bleeding and nerve cell tigrolysis in the stroma of the prostate dorsolateral lobes ([2]; 100 μl 0.4 N beneath prostatic capsule, 6 hours after injection): slight (+) to moderate (++) | hyperplasia and fibrosis of the fibroblast, and inflammatory cellular infiltration in the stroma of the prostate dorsolateral lobes ([2]; 100 μl 0.4 N beneath prostatic capsule, 4 days after injection): moderate (++) to severe (+++) | prostate tissue damage ([2]; 100 μl 0.4 N beneath prostatic capsule, 8 days after injection): still observable | loss of glandular epithelial cells, peeling of epithelium, degeneration/necrosis, and presence of erythrocytes at the glandular cavities of the prostate dorsolateral lobes ([2]; 100 μl 0.4 N injected beneath prostatic capsule of right lateral lobe, 6 hours after injection): slight (+) to moderate (++) to severe (+++) | epithalaxia in the glandular cavities of the prostate dorsolateral lobes ([2]; 100 μl 0.4 N injected into the vas deferens (comparative group), 6 hours after injection): severe (+++) | bleeding in the stromata of the glandular tissues of the ampulla ductus deferentis [2, 6]: severe (+++) | epithalaxia, degeneration/necrosis and bleeding in the glandular cavities of the ampulla ductus deferentis [2, 6]: severe (+++) | localized bleeding in the stroma of the prostate dorsolateral lobes [2, 6]: severe (+++) | prostate tissue damage ([2]; 100 μl 0.4 N into the vas deferens, 4 days after injection): did not exhibit such prostate tissue damage | damage at the glandular tissues of the ampulla ductus deferentis ([2]; 100 μl 0.4 N into the vas deferens, at least 4 days after injection): did not exhibit such damage | development of prostatitis, pathohistological point of view ([2]; injected into the vas deferens of rats (animal model (5))): only to a very slight extent
